Experimental findings from patent US20050037450A1, “Novel targets for lithium therapy” (Duke University, priority 2002, published 2005) are described below.

The target in the experiment is T1, 1ptase D54A (aspartate to alanine) (Bos taurus, UniProt P21327, D54A).
T1 sequence (P21327 1-400 D54A): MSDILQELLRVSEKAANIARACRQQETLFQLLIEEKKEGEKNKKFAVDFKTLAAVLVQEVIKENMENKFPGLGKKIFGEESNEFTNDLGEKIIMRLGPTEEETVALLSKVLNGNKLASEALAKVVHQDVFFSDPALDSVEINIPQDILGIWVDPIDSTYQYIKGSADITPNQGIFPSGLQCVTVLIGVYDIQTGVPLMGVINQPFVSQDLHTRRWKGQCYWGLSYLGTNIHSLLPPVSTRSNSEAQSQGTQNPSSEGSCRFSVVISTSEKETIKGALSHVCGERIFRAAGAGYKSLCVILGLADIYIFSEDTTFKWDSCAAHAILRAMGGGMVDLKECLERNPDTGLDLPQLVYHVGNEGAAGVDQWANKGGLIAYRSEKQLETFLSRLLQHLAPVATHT
Briefly: Lithium inhibition of 1ptase D54A mutant. The class given is biochemical, bovine. The source says:
Low concentrations of lithium and high concentrations of normally catalytic magnesium inhibit Impase and 1ptase uncompetitively with respect to substrate. The inhibitory effects of lithium and magnesium are mutually exclusive in Impase, implying that the inhibitory metals bind at the same or overlapping sites (Ganzhorn, 1990). Structural studies of 1ptase offered additional evidence. […] This was interpreted to mean that electron-poor lithium was bound at the second metal binding site, excluding the binding of electron-rich gadolinium, leading to a dearth of electron density at this site. This conclusion was supported by mutagenic data in which a residue that anchors the second metal binding site, Asp-54 (homologous to Impase Asp-47 (FIGS. 1 and 2)), was mutated to alanine.
FIG. 24 summarizes the results of mutagenic and crystallography experiments representing the lithium binding site in 1ptase. […] When 1ptase was crystallized in the presence of metal and lithium, however, the density at metal site 2 disappeared. This is explained by the fact that lithium, having only 2 electrons, is invisible (right panel). Therefore, loss of occupancy at metal site 2 is a result of invisible lithium binding there, excluding the binding of more electron rich metals. […]

What is called Ki is the dissociation constant of the complex between target and ligand, obtained from inhibition or displacement. `[Li]` [lithium] displayed a Ki of 100 mM.
